# Measured values reported in a melting point compilation (Tetko et al.; mined from patent text by program, amines drawn as free bases though some values may be those of a salt).
row,Compound,melting point
1,CC(C)(CO)NC(=O)c1cc(F)c(F)cc1F,114 to 116 °C
2,CCN(C)c1nc2sc3c(NCc4ccco4)ncnc3c2c2c1CCC(C)(C)C2,116 to 118 °C
3,CCCCCCCCCCCCc1ccc(CCC(COC(C)=O)(COC(C)=O)NC(C)=O)cc1,111 to 113 °C
4,Nc1ccc2ccccc2c1-c1c(P(=O)(c2ccccc2)c2ccccc2)ccc2ccccc12,133 °C
5,CCCCCCCCCCCCCCCCSCC(C)(C)CO,25 to 28 °C
6,CCOc1cc2c(cc1S(=O)(=O)NC(=S)NC)C(CNC(=O)N1CC(C)=C(CC)C1=O)CCO2 (stereo unspecified),178 °C
7,Cc1ccc(C(=O)C(C#N)C#N)cc1,163 °C
8,COC(=O)Nc1ccc(C(=O)O)cc1,195 to 196 °C
9,CNc1ncc2cc(-c3c(Cl)cccc3Cl)c(=O)n(C)c2n1,243 to 244 °C
10,CN1CCC(OC(c2cccc(N)c2)c2nc3ccccc3[nH]2)CC1 (stereo unspecified),100 °C
11,NC(=O)N=C1SCCN1Cc1ccccc1,143 to 145 °C
12,Cc1ccc2c(c1)c(-c1ccnc3c(C(F)(F)F)cccc13)c(C)n2CC(=O)O,145 °C
13,O=C1Cc2c(ccc3ccc(C(O)C(F)(F)F)cc23)O1 (stereo unspecified),208 to 209 °C
14,O=C(CC1=C(n2nc(-c3c(-c4ccccc4)nn4ccccc34)ccc2=O)CCCC1)N1CCCC1,178 to 179 °C
15,O=C(c1ccc([N+](=O)[O-])cc1)N1Cc2ccnn2Cc2ccccc21,227 to 229 °C
16,CCCN1CCC=C(c2cccc3[nH]ccc23)C1,168 °C
17,COC(=O)Nc1nc(-c2ccccc2)c(-c2nc3ccccc3c(=O)n2-c2ccccc2Cl)s1,> 275 °C
18,CCCCCOc1ccc(CCOc2ccc(/C=C(\OCC)C(=O)O)cc2OCCCC)cc1F,102 °C
19,CC(C)Nc1cccnc1N1CCN(C(=O)c2ccc(C(=O)O)cc2)CC1,215 to 217 °C
20,c1ccc(N2CNCC23CCN(C2CCc4ccccc42)CC3)cc1 (racemic),> 250 °C
21,OCC1OC(n2cnc3c(NC4CCc5ccccc54)ncnc32)C(O)C1O (stereo unspecified),120 to 122 °C

row,Compound,melting point
1,O=C(c1cccs1)c1cnn2c(-c3cccc(-c4nnn[nH]4)c3)ccnc12,290 °C
2,CC#CCOc1ccc(S(=O)(=O)N(C)CCC(=O)O)cc1,90 to 110 °C
3,O=c1[nH]nnn1-c1ccc(OCc2ccc(F)cc2)cc1F,171 to 172 °C
4,O=C1CCC(n2cnc3ccc(Cl)cc3c2=O)C(=O)N1 (stereo unspecified),302 to 305 °C
5,O=C(O)c1cc(=O)c2cc([N+](=O)[O-])ccc2s1,220 °C
6,CCCn1nc2c(N)nc3ccccc3c2c1CCCCN1C(=O)c2ccccc2C1=O,204 to 206 °C
7,CCCCCCCCCC(=O)Nc1cc(C(=O)O)c2cc[nH]c2c1,248 to 250 °C
8,COC(=O)C1=C(C)NC(N)=C(C#N)C1c1ccc(C(F)(F)F)cc1 (stereo unspecified),210 to 214 °C
9,CCOP(=O)(Cc1ccc(NC(=O)CCCc2cnoc2-c2ccccc2)cc1)OCC,128 to 129 °C
10,NCCCNC(c1ccccc1)(c1ccccc1)c1ccccc1,59 to 61 °C
11,Cc1oc(-c2ccccc2)nc1C(N)=O,154 to 157 °C
12,CC1CCNC1=C[N+](=O)[O-] (stereo unspecified),47 to 47.5 °C
13,CCCCN(CCCC)C(=O)CC(C)Nc1c(C#N)cnn1-c1ccc(Cl)c(Cl)c1Cl (stereo unspecified),101 to 103 °C
14,CC(C(=O)O)c1ccc(-c2ccccc2F)cc1 (stereo unspecified),94.5 to 97 °C
15,CCn1cc(C(=O)NN)c(=O)c2ccc(-c3ccccc3)cc21,243 to 244 °C
16,O=C(Cc1ccc(F)cc1)c1ccccc1,109 to 110 °C
17,COP(=S)(OC)Oc1ncn(-c2ccccn2)n1,88 to 91 °C
18,O=C(CCC1CCCCC1)C1=C(O)CSC1=O,60 to 62 °C
19,Nc1cc(C(=O)CCCCCl)cc2c1OCC2,129 to 131 °C
20,OCc1ccc(Cn2nc(OCc3ccccc3)c3ccccc32)o1,80 to 82 °C
